For the data set, the system named is tomato (Solanum lycopersicum cv "Carousel") seeds. The data set can be described thus: Effect of JA seed treatment on seed germination of tomato. It counts as in vivo. The source says:
The illustrated data are means of 10 replicate populations+/−standard error of the mean, and the line is a fitted dose response.

On to `CC/C=C\C[C@H]1C(=O)CC[C@@H]1CC(=O)O` [JA, jasmonic acid], for which, for the setting “JA between 0.001 and 50 mM tested, germination 7 days after sowing”, the “JA concentration that significantly reduced the final percentage germination” value was over 10 mM. Further, for the setting “seed treatment 1.5 or 3.0 mM JA”, the Final percentage germination entry is reported as “no significant effects”. The “Delay of seed germination” value (seed treatment 1.5 or 3.0 mM JA, 24 hours at 4 C in the dark) is reported as “delayed by approximately one day”.

The record behind these values is patent US8507756B2, “Plant protection” (Plant Bioscience Limited, priority 2007, dated 2013).
